This note sets out measurements from US20240366608A1, “PHARMACEUTICAL COMBINATIONS OF SOS1 INHIBITORS FOR TREATING AND/OR PREVENTING CANCER” (Lupin Limited, priority 2021, published 2024).

Test [1] concerns MIA PaCa-2 or SW1990 pancreatic cancer cells. The test can be described thus: Colony formation assay, SOS1 inhibitor combined with targeted agents. The settings on record: 7 days of drug treatment, crystal violet absorbance at 590 nm; combined with one or more of the agents listed. Format: cell-based, human. As for the experimental part:
Compound 1, 2, 3, 3a, 3b, 4, 4a, 4b, 5, 6, 6a, 6b and 7 were tested for inhibition of colony formation potential in combination with one or more of the following agents in MIA PaCa-2 or SW1990 pancreatic cancer cells: • EGFR inhibitor: Afatinib, KRAS-G12C inhibitor: AMG 510, KRAS-G12C inhibitor: MRTX849, KRAS-G12D inhibitor: MRTX1133, ERK1/2 inhibitor: LY3214996 and BVD-523, BRAF inhibitor: Encorafenib, pan-RAF inhibitor: LXH254, PRMT5 inhibitor: compound 24 of WO 2019116302, Type I PRMT inhibitor: GSK3368715, PI3K inhibitor: BYL719, FGFR inhibitor: Nintedanib, CDK4/6 inhibitor: Abemaciclib, and other chemotherapeutic agent: Gemcitabine.
Colony formation assay: MIA PaCa-2 cells or SW1990 cells were seeded at 500 cells per well or 1500 cells/well, respectively in 48 well tissue culture plate and cells were allowed to settle overnight (16 to 20 h). On the following day, cells were treated with various concentrations of targeted agents to generate IC50 with or without increasing concentrations of SOS1 inhibitor (as depicted in the figures), and the assay plates were incubated under normal cell culture conditions. After 7 days of drug treatment, media was removed from each well and plates were washed with PBS. Cell colonies were stained with crystal violet solution for 2-5 min. Plate was then washed carefully under tap water and air dried. For quantitation, 200 μL destaining solution containing 10% Glacial acetic acid was added to each well and stained colonies were allowed to solubilize for 20-30 min on plate shaker. After solubilization, absorbance of the extracted stain was recorded in BioTek Synergy Neo U plate reader at 590 nm. Absorbance values were directly proportional to colony growth.

Test [2] concerns MIA PaCa-2 human pancreatic cancer xenograft. As to the kind of experiment: In vivo efficacy, Compound 1 or 4b combined with AMG 510, xenograft. On the set-up: species or system nude mice. The settings on record: single agent; for tumor growth inhibition: 30 mg/kg b.i.d.
Test [3] shares this test system. As to the kind of experiment: In vivo efficacy, Compound 4b combined with Afatinib or Compound 24 of WO 2019116302, xenograft. On the set-up: species or system nude mice. The settings on record: single agent: Compound 4b 15 mg/kg b.i.d.; Afatinib 12.5 mg/kg q.d.; Compound 24 of WO 2019116302 1.0 mg/kg b.i.d.
The test system is the same in test [4]. The test can be described thus: In vivo efficacy, Compound 7 combined with LXH254, xenograft. On the set-up: species or system nude mice. As to conditions: single agent: Compound 7 5 mg/kg q.d.; LXH254 50 mg/kg b.i.d.
Another test relates to MIA PaCa-2 xenograft. As to the kind of experiment: In vivo efficacy, Compound 5 combined with Compound 24 of WO 2019116302, xenograft. On the set-up: species or system nude mice. As to conditions: single agent: Compound 5 50 mg/kg b.i.d.; Compound 24 of WO 2019116302 dose not given. As for the experimental part:
Compound 5 was tested in combination with Compound 24 of WO 2019116302 in vivo in MIA PaCa-2 xenograft model in nude mice.
20×10^6 MIA PaCa-2 cells were injected subcutaneously in the presence of PBS and Matrigel in 1:1 ratio in nude mice.

Test [5] concerns MIA PaCa-2 human pancreatic cancer xenograft. As to the kind of experiment: In vivo efficacy, Compound 7 combined with AMG 510, xenograft. As to conditions: single agent. Also on record: species or system nude mice.
Text: MIA PaCa-2 tumor fragments were implanted subcutaneously in the right flank region of nude mice. Tumor-bearing mice were randomized once the tumors reached an average volume of ˜155-164 mm^3 (tumor volume range 66-298 mm^3).
The test system is the same in test [6]. As to the kind of experiment: In vivo efficacy, Compound 7 combined with Afatinib, Compound 24 of WO 2019116302 or Ulixertinib, xenograft. As to conditions: single agent, Compound 7 15 mg/kg b.i.d. On the set-up: species or system nude mice.

As to `COC1(C)C(=O)N(C)c2cc3nc(C)nc(N[C@H](C)c4cccc(C(F)(F)C(C)(C)O)c4F)c3cc21` (single isomer, unassigned) [Compound 6b], the “potentiation of activity of combination agents leading to inhibition of colony forming activity” value in test [1] is given as “significant potentiation”.
`Cc1nc(N[C@H](C)c2cccc(C(F)(F)C(C)(O)CO)c2F)c2cc3c(cc2n1)C(C)(C)C(=O)N3C` (stereo partly drawn) [Compound 3, 4-(((R)-1-(3-((R&S)-1,1-Difluoro-2,3-dihydroxy-2-methylpropyl)-2-fluorophenyl)ethyl)amino)-2,6,8,8-tetramethyl-6,8-dihydro-7H-pyrrolo[2,3-g]quinazolin-7-one]: the “potentiation of activity of combination agents leading to inhibition of colony forming activity” value in test [1] is “significant potentiation”.
As for `COC1(C)C(=O)N(C)c2cc3c(N[C@H](C)c4cccc(C(F)(F)C(C)(C)O)c4F)nc(C)nc3cc21` (single isomer, unassigned) [Compound 4b], the “potentiation of activity of combination agents leading to inhibition of colony forming activity” value in test [1] is listed as “significant potentiation”. Also, the tumor growth inhibition is 65.71±7.41% in test [2] and 47% in test [3].
For `Cc1ccc(NC(=O)c2ccnc(C(F)(F)F)c2)cc1-c1cc(OCCO)nc(N2CCOCC2)c1` [LXH254, N-(3-(2-(2-hydroxyethoxy)-6-morpholinopyridin-4-yl)-4-methylphenyl)-2-(trifluoromethyl)isonicotinamide, reference compound], the “inhibition in tumor growth” value in test [4] is recorded as 34.96%.
`COC1(C)C(=O)N(C)c2cc3c(N[C@H](C)c4cccc(C(F)(F)C(C)(C)O)c4F)nc(C)nc3cc21` (mixture of isomers) [Compound 4, (R&S)-4-(((R)-1-(3-(1,1-difluoro-2-hydroxy-2-methylpropyl)-2-fluorophenyl)ethyl)amino)-8-methoxy-2,6,8-trimethyl-6,8-dihydro-7H-pyrrolo[2,3-g]quinazolin-7-one]: in test [1], the “potentiation of activity of combination agents leading to inhibition of colony forming activity” value was “significant potentiation”.
Regarding `Cc1nc(NC(C)c2cccc(C(F)(F)C(C)(C)O)c2)c2cc3c(cc2n1)C(C)(C)C(=O)N3C` (single isomer, unassigned) [Compound 2, (R/S)-4-((1-(3-(1,1-difluoro-2-hydroxy-2-methylpropyl)phenyl)ethyl)amino)-2,6,8,8-tetramethyl-6,8-dihydro-7H-pyrrolo[2,3-g]quinazolin-7-one], the “potentiation of activity of combination agents leading to inhibition of colony forming activity” value in test [1] is “significant potentiation”.
Consider `CN(C)C/C=C/C(=O)Nc1cc2c(Nc3ccc(F)c(Cl)c3)ncnc2cc1O[C@H]1CCOC1` [Afatinib, (S,E)-N-(4-((3-chloro-4-fluorophenyl)amino)-7-((tetrahydrofuran-3-yl)oxy)quinazolin-6-yl)-4-(dimethylamino)but-2-enamide], for which the tumor growth inhibition in test [3] was determined as 38%.
With `Cc1nc(N[C@H](C)c2cc(N)cc(C(F)(F)F)c2)c2cc(-c3ccc(=O)n(C)c3)c3c(c2n1)CCC3` [Compound 5, (R)-5-(4-((1-(3-amino-5-(trifluoromethyl)phenyl)ethyl)amino)-2-methyl-8,9-dihydro-7H-cyclopenta[h]quinazolin-6-yl)-1-methylpyridin-2(1H)-one], in test [1], the “potentiation of activity of combination agents leading to inhibition of colony forming activity” value is “significant potentiation”. Further, the tumor growth inhibition with MIA PaCa-2 xenograft was found to be 59%.
As for `Cc1nc(N[C@H](C)c2cccc(C(F)(F)C(C)(O)CO)c2F)c2cc3c(cc2n1)C(C)(C)C(=O)N3C` (single isomer, unassigned) [Compound 3a], the “potentiation of activity of combination agents leading to inhibition of colony forming activity” value in test [1] is recorded as “significant potentiation”.
Turning to `CO[C@]1(C)C(=O)N(C)c2cc3nc(C)nc(N[C@H](C)c4cccc(C(F)(F)C(C)(C)O)c4F)c3cc21` (racemic) [Compound 6a, (S/R)-4-(((R)-1-(3-(1,1-difluoro-2-hydroxy-2-methylpropyl)-2-fluorophenyl)ethyl)amino)-6-methoxy-2,6,8-trimethyl-6,8-dihydro-7H-pyrrolo[3,2-g]quinazolin-7-one], the “potentiation of activity of combination agents leading to inhibition of colony forming activity” value in test [1] is “significant potentiation”.
Take `Cc1nc(N[C@H](C)c2cccc(C(F)(F)[C@@](C)(O)CO)c2F)c2cc3c(cc2n1)C(C)(C)C(=O)N3C` (single isomer, unassigned) [Compound 3b]: the “potentiation of activity of combination agents leading to inhibition of colony forming activity” value in test [1] was “significant potentiation”.
`Cc1nc(N[C@H](C)c2cccc(C(F)(F)C(C)(C)O)c2F)c2cc3c(cc2n1)C(C)(C)C(=O)N3C` [Compound 1, (R)-4-((1-(3-(1,1-Difluoro-2-hydroxy-2-methylpropyl)-2-fluorophenyl)ethyl)amino)-2,6,8,8-tetramethyl-6,8-dihydro-7H-pyrrolo[2,3-g]quinazolin-7-one]: in test [1], the “potentiation of activity of combination agents leading to inhibition of colony forming activity” value is listed as “significant potentiation”. The tumor growth inhibition in test [2] amounted to 63.82±8.32%.
Turning to `COC1(C)C(=O)N(C)c2cc3nc(C)nc(N[C@H](C)c4cccc(C(F)(F)C(C)(C)O)c4F)c3cc21` (mixture of isomers) [Compound 6, (R&S)-4-(((R)-1-(3-(1,1-difluoro-2-hydroxy-2-methylpropyl)-2-fluorophenyl)ethyl)amino)-6-methoxy-2,6,8-trimethyl-6,8-dihydro-7H-pyrrolo[3,2-g]quinazolin-7-one], in test [1], the “potentiation of activity of combination agents leading to inhibition of colony forming activity” value is “significant potentiation”.
`CO[C@]1(C)C(=O)N(C)c2cc3c(N[C@H](C)c4cccc(C(F)(F)C(C)(C)O)c4F)nc(C)nc3cc21` (single isomer, unassigned) [Compound 4a]: the “potentiation of activity of combination agents leading to inhibition of colony forming activity” value in test [1] is listed as “significant potentiation”.
For `Nc1nc2cc(CCC3=C[C@@H](n4ccc5c(N)ncnc54)[C@H](O)[C@@H]3O)cc(F)c2cc1Cl` [Compound 24 of WO 2019116302, (1S,2R,5R)-3-(2-(2-amino-3-chloro-5-fluoroquinolin-7-yl)ethyl)-5-(4-amino-7H-pyrrolo[2,3-d]pyrimidin-7-yl)cyclopent-3-ene-1,2-diol, reference compound], the tumor growth inhibition in test [3] worked out at 52%; with MIA PaCa-2 xenograft, 73%.
Regarding `CO[C@]1(C)C(=O)N(C)c2cc3c(N[C@H](C)c4cc(N)cc(C(F)(F)F)c4)nc(C)nc3cc21` [Compound 7, (S)-4-(((R)-1-(3-amino-5-(trifluoromethyl)phenyl)ethyl)amino)-8-methoxy-2,6,8-trimethyl-6,8-dihydro-7H-pyrrolo[2,3-g]quinazolin-7-one], the “potentiation of activity of combination agents leading to inhibition of colony forming activity” value in test [1] was “significant potentiation”. For the same molecule, the “inhibition in tumor growth” value in test [4] is recorded as 39.82%; in test [5] (Compound 7 5 mg/kg q.d.) it was 30.40%; in test [5] (Compound 7 10 mg/kg q.d.), 43.42%; in test [5] (Compound 7 20 mg/kg q.d.), 52.71%; in test [6] it was 32.86%.
In the case of `C=CC(=O)N1CCN(c2nc(=O)n(-c3c(C)ccnc3C(C)C)c3nc(-c4c(O)cccc4F)c(F)cc23)[C@@H](C)C1` [AMG 510, 4-((S)-4-acryloyl-2-methylpiperazin-1-yl)-6-fluoro-7-(2-fluoro-6-hydroxyphenyl)-1-(2-isopropyl-4-methylpyridin-3-yl)pyrido[2,3-d]pyrimidin-2(1H)-one, reference compound], the tumor regression in test [2] (AMG 510 10 mg/kg q.d.) stood at 39.43±15.22%. In addition, the “inhibition in tumor growth” value in test [5] (AMG 510 3 mg/kg q.d.) came out at 77.69%.
